# Results reported in the NIST ThermoML archive (doi:10.1016/j.jct.2012.07.008).
# ± gives the expanded uncertainty stated by the source.
# Experiment: molar enthalpy of vaporization or sublimation
# Settings: 298.15 K; Liquid; drop calorimetry
compound,measurement,value
"O=C1CCCc2occc21 [6,7-dihydrobenzofuran-4(5H)-one]",molar enthalpy,16.6 ± 1.05 kcal/mol
